Results as given in US12503436B2, “Compounds and compositions for treating conditions associated with STING activity” (NOVARTIS PHARMA AG, priority 2021, dated 2025).

Biological target: STING (Homo sapiens, UniProt Q86WV6, G230A/H232R/R293Q/R71H)
Experiment: STING reporter assay in THP1-Dual KO-IFNAR2 cells (2′3′cGAMP stimulation, luciferase reporter)
Format: cell-based
Settings: 15 μM 2′3′cGAMP stimulation, 24 h, read-out: Pharmaron, THP1_IFNAR2 STING 24 h Luci Normalized: GeoMean EC50
Procedure, shortened: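 EC50 from secreted luciferase (QUANTI-Luc Plus luminescence of supernatant) after 24 h at 37 °C, 5% CO2. Cells: THP1-Dual KO-IFNAR2, treated with compound (0.0017-100 μM final) plus lipofected 2′3′cGAMP at 15 μM final.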

Chain of STING (Q86WV6 whole entry R71H/G230A/H232R/R293Q): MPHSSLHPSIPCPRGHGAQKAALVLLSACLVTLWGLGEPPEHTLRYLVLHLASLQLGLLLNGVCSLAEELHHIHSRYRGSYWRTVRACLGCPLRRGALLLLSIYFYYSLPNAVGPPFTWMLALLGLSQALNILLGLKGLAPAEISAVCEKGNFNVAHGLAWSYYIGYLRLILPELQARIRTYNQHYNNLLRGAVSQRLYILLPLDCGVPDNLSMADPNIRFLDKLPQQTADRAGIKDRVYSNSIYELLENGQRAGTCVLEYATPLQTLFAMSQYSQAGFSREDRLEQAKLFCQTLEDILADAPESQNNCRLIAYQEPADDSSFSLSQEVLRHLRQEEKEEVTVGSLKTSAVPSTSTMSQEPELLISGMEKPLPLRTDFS

Compound	EC50 [µM]
CC(=O)Nc1c[nH]c2ccc(CCOc3ccc(C(F)(F)F)cc3)cc12 [Compound 127, N-(5-(2-(4-(trifluoromethyl)phenoxy)ethyl)-1H-indol-3-yl)acetamide]	0.04 to 0.2
COCCN1CC(C)(C(=O)Nc2c[nH]c3ccc(O[C@H]4C[C@@H](c5ccc(C(F)(F)F)cc5)C4)cc23)C1 [Compound 422, 1-(2-methoxyethyl)-3-methyl-N-(5-(cis-3-(4-(trifluoromethyl)phenyl)cyclobutoxy)-1H-indol-3-yl)azetidine-3-carboxamide]	1 to 5
O=C(Nc1c[nH]c2ccc(OCCc3ccc(C(F)(F)F)cc3)cc12)[C@H]1C[C@@H](CO)C1 [Compound 533, cis-3-(hydroxymethyl)-N-(5-(4-(trifluoromethyl)phenethoxy)-1H-indol-3-yl)cyclobutane-1-carboxamide]	0.04 to 0.2
O=C(Nc1c[nH]c2ccc(OCc3ccc(C(F)(F)F)cc3)cc12)C1(F)CC1 [Compound 331, 1-fluoro-N-(5-((4-(trifluoromethyl)benzyl)oxy)-1H-indol-3-yl)cyclopropane-1-carboxamide]	1 to 5
CC(=O)Nc1c[nH]c2ccc(CCOc3cnc(Cl)c(C)c3)cc12 [Compound 557, N-(5-(2-((6-chloro-5-methylpyridin-3-yl)oxy)ethyl)-1H-indol-3-yl)acetamide]	1 to 5
C[C@@H]1OC[C@H]1C(=O)Nc1c[nH]c2ccc(O[C@H]3C[C@H](c4ccc(C(F)(F)F)cc4)C3)cc12 [Compound 423, (2S,3R)-2-methyl-N-(5-(trans-3-(4-(trifluoromethyl)phenyl)cyclobutoxy)-1H-indol-3-yl)oxetane-3-carboxamide]	0.2 to 1
CC(=O)Nc1c[nH]c2ccc(CCOc3cncc(C(F)F)c3)cc12 [Compound 439, N-[5-(2-{[5-(difluoromethyl)pyridin-3-yl]oxy}ethyl)-1H-indol-3-yl]acetamide]	5 to 100
CC1(C(=O)Nc2c[nH]c3ccc(OCCc4ccc(C(F)(F)F)cc4)cc23)CC1 [Compound 251, 1-methyl-N-(5-(4-(trifluoromethyl)phenethoxy)-1H-indol-3-yl)cyclopropane-1-carboxamide]	0.04 to 0.2
CC(=O)Nc1c[nH]c2ccc(OCCc3cnc(N4CCN(CC(F)(F)F)CC4)c(F)c3)cc12 [Compound 253, N-(5-(2-(5-fluoro-6-(4-(2,2,2-trifluoroethyl)piperazin-1-yl)pyridin-3-yl)ethoxy)-1H-indol-3-yl)acetamide]	1 to 5
COC1CC(C(=O)Nc2c[nH]c3ccc(OCCc4ccc(C(F)(F)F)cc4)cc23)C1 (centres unmarked) [Compound 234, 3-methoxy-N-(5-(4-(trifluoromethyl)phenethoxy)-1H-indol-3-yl)cyclobutane-1-carboxamide]	0.04 to 0.2
CC(C)(C)C(=O)Nc1c[nH]c2ccc(OCC[C@@H]3C[C@@H]4CN(CC(F)(F)F)C[C@@H]4C3)cc12 [Compound 367, N-(5-(2-((3aR,5r,6aS)-2-(2,2,2-trifluoroethyl)octahydrocyclopenta[c]pyrrol-5-yl)ethoxy)-1H-indol-3-yl)pivalamide]	0.2 to 1
CC1(C)CC(C(=O)Nc2c[nH]c3ccc(OCCc4ccc(C(F)(F)F)cc4)cc23)C1 [Compound 236, 3,3-dimethyl-N-(5-(4-(trifluoromethyl)phenethoxy)-1H-indol-3-yl)cyclobutane-1-carboxamide]	0.04 to 0.2
COC1CC(C(=O)Nc2c[nH]c3ccc(OCC[C@@H]4C[C@@H]5CN(CC(F)(F)F)C[C@@H]5C4)cc23)C1 (stereo partly drawn) [Compound 345, 3-methoxy-N-(5-(2-((3aR,5r,6aS)-2-(2,2,2-trifluoroethyl)octahydrocyclopenta[c]pyrrol-5-yl)ethoxy)-1H-indol-3-yl)cyclobutane-1-carboxamide]	0.2 to 1
COCCOCC(=O)Nc1c[nH]c2ccc(OCCc3ccc(C(F)(F)F)cc3)cc12 [Compound 407, 2-(2-methoxyethoxy)-N-(5-(4-(trifluoromethyl)phenethoxy)-1H-indol-3-yl)acetamide]	0.2 to 1
O=C(Nc1c[nH]c2ccc(OCCc3ccc(C(F)(F)F)cc3)cc12)[C@H]1C[C@@H](O)C1 [Compound 190, (1S,3S)-3-hydroxy-N-(5-(4-(trifluoromethyl)phenethoxy)-1H-indol-3-yl)cyclobutanecarboxamide]	0.2 to 1
CC(=O)Nc1c[nH]c2ccc(CCOc3ccc(-c4ccncc4)cc3)cc12 [Compound 451, N-(5-{2-[4-(pyridin-4-yl)phenoxy]ethyl} -1H-indol-3-yl)acetamide]	1 to 5
CC(=O)Nc1c[nH]c2ccc(OCCc3ccc(C(F)(F)F)cc3)cc12 [Compound 136, N-(5-(4-(trifluoromethyl)phenethoxy)-1H-indol-3-yl)acetamide]	0.04 to 0.2
CC(=O)Nc1c[nH]c2cc(F)c(CCOc3ccc(C(F)(F)F)cc3)cc12 [Compound 223, N-(6-fluoro-5-(2-(4-(trifluoromethyl)phenoxy)ethyl)-1H-indol-3-yl)acetamide]	0.04 to 0.2

Compound	EC50 [µM]
CC1(F)CC(C(=O)Nc2c[nH]c3ccc(CCOc4ccc(C(F)(F)F)cc4)cc23)C1 (centres unmarked) [Compound 395, 3-fluoro-3-methyl-N-(5-(2-(4-(trifluoromethyl)phenoxy)ethyl)-1H-indol-3-yl)cyclobutane-1-carboxamide]	0.2 to 1
O=C(Nc1c[nH]c2ccc(OCc3ccc(C(F)(F)F)cc3)cc12)[C@H]1C[C@@H](O)C1 [Compound 324, cis-3-hydroxy-N-(5-((4-(trifluoromethyl)benzyl)oxy)-1H-indol-3-yl)cyclobutane-1-carboxamide]	0.2 to 1
C[C@]1(C(=O)Nc2c[nH]c3ccc(OCc4ccc(C(F)(F)F)cc4)cc23)C[C@H](CO)C1 [Compound 416, cis-3-(hydroxymethyl)-1-methyl-N-(5-((4-(trifluoromethyl)benzyl)oxy)-1H-indol-3-yl)cyclobutane-1-carboxamide]	0.2 to 1
N#CC1(C(=O)Nc2c[nH]c3ccc(OCC[C@@H]4C[C@@H]5CN(CC(F)(F)F)C[C@@H]5C4)cc23)CC1 [Compound 370, 1-cyano-N-(5-(2-((3aR,5r,6aS)-2-(2,2,2-trifluoroethyl)octahydrocyclopenta[c]pyrrol-5-yl)ethoxy)-1H-indol-3-yl)cyclopropane-1-carboxamide]	0.2 to 1
CC1(C(=O)Nc2c[nH]c3ccc(OCCc4ccc(C(F)(F)F)cc4)cc23)CNC1 [Compound 569, 3-methyl-N-(5-(4-(trifluoromethyl)phenethoxy)-1H-indol-3-yl)azetidine-3-carboxamide]	1 to 5
O=C(Nc1c[nH]c2ccc(O[C@H]3C[C@@H](c4ccc(C(F)(F)F)cc4)C3)cc12)C1CC(F)(F)C1 [Compound 587, 3,3-difluoro-N-(5-(cis-3-(4-(trifluoromethyl)phenyl)cyclobutoxy)-1H-indol-3-yl)cyclobutane-1-carboxamide]	0.04 to 0.2
C[C@]1(C(=O)Nc2c[nH]c3ccc(OCc4ccc(C(F)(F)F)cc4)cc23)CC[C@H](O)CC1 [Compound 418, trans-4-hydroxy-1-methyl-N-(5-((4-(trifluoromethyl)benzyl)oxy)-1H-indol-3-yl)cyclohexane-1-carboxamide]	0.2 to 1
CC(=O)Nc1c[nH]c2ccc(CCC3CCN(CC(F)(F)F)CC3)cc12 [Compound 114, N-(5-(2-(1-(2,2,2-trifluoroethyl)piperidin-4-yl)ethyl)-1H-indol-3-yl)acetamide]	0.2 to 1
CC(=O)Nc1c[nH]c2ccc(CCOc3ccc(C#N)cc3)cc12 [Compound 462, N-{5-[2-(4-cyanophenoxy)ethyl]-1H-indol-3-yl}acetamide]	1 to 5
CC(C)(C)OC(=O)N1CC(C)(C(=O)Nc2c[nH]c3ccc(OCCc4ccc(C(F)(F)F)cc4)cc23)C1 [Compound 570, tert-butyl 3-methyl-3-((5-(4-(trifluoromethyl)phenethoxy)-1H-indol-3-yl)carbamoyl)azetidine-1-carboxylate]	0.2 to 1
O=C(Nc1c[nH]c2ccc(OCCc3ccc(C(F)(F)F)cc3)cc12)C1CN(CCC(F)(F)F)C1 [Compound 299, N-(5-(4-(trifluoromethyl)phenethoxy)-1H-indol-3-yl)-1-(3,3,3-trifluoropropyl)azetidine-3-carboxamide]	0.2 to 1
O=C(Nc1c[nH]c2ccc(CCOc3ccc(C(F)(F)F)cc3)cc12)C1CN(CC(F)(F)F)C1 [Compound 219, 1-(2,2,2-trifluoroethyl)-N-(5-(2-(4-(trifluoromethyl)phenoxy)ethyl)-1H-indol-3-yl)azetidine-3-carboxamide]	0.04 to 0.2
CC(=O)Nc1c[nH]c2ccc(CCOc3cccnc3C(F)(F)F)cc12 [Compound 541, N-(5-(2-((2-(trifluoromethyl)pyridin-3-yl)oxy)ethyl)-1H-indol-3-yl)acetamide]	5 to 100
CC1(C(=O)Nc2c[nH]c3ccc(OCC[C@@H]4C[C@@H]5CN(CC(F)(F)F)C[C@@H]5C4)cc23)CCCO1 (stereo partly drawn) [Compound 160, 2-methyl-N-(5-(2-((3aR,5r,6aS)-2-(2,2,2-trifluoroethyl)octahydrocyclopenta[c]pyrrol-5-yl)ethoxy)-1H-indol-3-yl)tetrahydrofuran-2-carboxamide]	0.2 to 1
O=C(Nc1c[nH]c2ccc(OCCc3ccc(C(F)(F)F)cc3)cc12)C1(C(F)(F)F)CC1 [Compound 185, 1-(trifluoromethyl)-N-(5-(4-(trifluoromethyl)phenethoxy)-1H-indol-3-yl)cyclopropane-1-carboxamide]	0.2 to 1
COCCCC(=O)Nc1c[nH]c2ccc(OCC[C@@H]3C[C@@H]4CN(CC(F)(F)F)C[C@@H]4C3)cc12 [Compound 520, 4-methoxy-N-(5-(2-((3aR,5r,6aS)-2-(2,2,2-trifluoroethyl)octahydrocyclopenta[c]pyrrol-5-yl)ethoxy)-1H-indol-3-yl)butanamide]	0.04 to 0.2
CC(=O)Nc1c[nH]c2ccc(OCc3ccc(C(F)(F)F)cc3)cc12 [Compound 247, N-(5-((4-(trifluoromethyl)benzyl)oxy)-1H-indol-3-yl)acetamide]	0.2 to 1
